Test results: patent US11701364B2, “Agonists of stimulator of interferon genes sting” (The Scripps Research Institute, priority 2018, dated 2023)

target: T1, STING (Stimulator of Interferon Genes) (Homo sapiens, UniProt Q86WV6, G230A/H232R/R293Q/R71H); assay: ISG-LUC activation assay (ISRE-Luciferase assay in THP-1 Lucia ISG reporter cells); assay type: cell-based; conditions: THP-1 Lucia ISG cells, 24 hours, luciferase reporter; read-out: ISG-LUC activation assay (EC50)
T1 construct: host or cells: THP-1-Lucia ISG cells (human monocytic line)
Source text: This has been established using a primary assay involving a human THP-1 cell line carrying an IRF-inducible reporter with 5 copies of the IFN signaling response element. Counter screens, involving alternative reporter constructs, rodent cell-based assays, as well as cGAS and STING knock-out cell lines, are used to eliminate luciferase artifacts and ensure human-rodent cross species reactivity, as well as pathway selectivity. Biochemical assays, involving cGAS enzymatic activity and STING protein binding assays, are used to identify the specific target of identified hits.
THP-1 Lucia ISG cells were resuspended in low-serum growth media (2% FBS) at a density of 5×10^5 cells/ml and treated with test article or vehicle (DMSO). 50 μL of cells were seeded into each well of a 384-well white greiner plates and incubated for 24 hours. To evaluate expression of the luciferase reporter, 30 μl of Quanti-luc (Invivogen) detection reagent was added to each well and luminescence was read using an Envision plate reader (Perkin Elmer) set with an integration time of 0.1 seconds.

T1 sequence (Q86WV6 whole entry R71H/G230A/H232R/R293Q): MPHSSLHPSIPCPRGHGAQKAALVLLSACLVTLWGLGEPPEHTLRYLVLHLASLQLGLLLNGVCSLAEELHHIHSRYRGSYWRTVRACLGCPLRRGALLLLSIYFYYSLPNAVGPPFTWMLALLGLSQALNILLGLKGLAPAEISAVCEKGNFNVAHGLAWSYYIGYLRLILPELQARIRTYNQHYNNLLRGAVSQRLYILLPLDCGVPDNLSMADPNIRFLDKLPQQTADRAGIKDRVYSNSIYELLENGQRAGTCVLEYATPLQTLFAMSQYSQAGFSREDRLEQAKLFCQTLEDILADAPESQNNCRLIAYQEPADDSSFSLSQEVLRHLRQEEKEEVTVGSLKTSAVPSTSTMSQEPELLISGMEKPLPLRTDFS

Going from `O=c1oc(-c2ccc(-n3ccnc3)nn2)nc2cc(Cl)c(F)cc12` [Compound 36] to `O=c1oc(-c2ccc(-n3ccnc3)nn2)nc2ccc(F)c(F)c12` [Compound 132], the EC50 rises from 40.3 nM to 4280 nM (110-fold). The first is the more potent here.

`O=c1oc(-c2ccc(-n3ccnc3)nn2)nc2ccc(OC(F)(F)F)cc12` [Compound 41] and `N#Cc1ccc2c(=O)oc(-c3ccc(-n4ccnc4)nn3)nc2c1` [Compound 37] are within 1.5-fold of each other in EC50: 176 nM for the first, 166 nM for the second.

`COC(=O)c1ccc(C(F)(F)F)cc1NC(=O)c1ccc(-n2ccnc2)nn1` [Compound 27] and `COC(=O)c1cc(C(F)(F)F)ccc1NC(=O)c1ccc(-n2ccnc2)nn1` [Compound 26] are within 1.5-fold of each other in EC50: 136 nM for the first, 114 nM for the second.

Compared with `COC(=O)c1nn(C)cc1NC(=O)c1ccc(-n2ccnc2)nn1` [Compound 119], `COC(=O)c1nc(OC)ccc1NC(=O)c1ccc(-n2ccnc2)nn1` [Compound 74] is 4.3-fold lower in EC50: 5890 nM for the first, 1360 nM for the second. The second is the more potent here.

First: COC(=O)c1cc(F)c(C)nc1NC(=O)c1ccc(-n2ccnc2)nn1 [Compound 149]
Second: COC(=O)c1cc(Cl)c(C)nc1NC(=O)c1ccc(-n2ccnc2)nn1 [Compound 47]
The EC50 of the first is 110-fold higher: 30100 nM for the first, 282 nM for the second.

Going from `COC(=O)c1cc(C2CC2)ccc1NC(=O)c1ccc(-n2ccnc2)nn1` [Compound 32] to `O=C(Nc1ccc(C2CC2)cc1C(=O)O)c1ccc(-n2ccnc2)nn1` [Compound 85], the EC50 rises from 359 nM to ~16600 nM (46-fold).

`COC(=O)c1cc(OC(F)(F)F)ccc1NC(=O)c1ccc(-n2ccnc2)nn1` [Compound 76] and `COC(=O)c1cc(C#N)ccc1NC(=O)c1ccc(-n2ccnc2)nn1` [Compound 49] are within 1.5-fold of each other in EC50: 573 nM for the first, 588 nM for the second.

Compared with `CN(O)C(=O)c1cc(F)c(F)cc1NC(=O)c1ccc(-n2ccnc2)nn1` [Compound 147], `NC(=O)c1cc(F)c(F)cc1NC(=O)c1ccc(-n2ccnc2)nn1` [Compound 63] is 2-fold lower in EC50: 5250 nM for the first, 2640 nM for the second.

Going from `COc1ccc(C(=O)O)c(NC(=O)c2ccc(-n3ccnc3)nn2)c1` [Compound 62] to `O=C(Nc1cc(F)ccc1C(=O)O)c1ccc(-n2ccnc2)nn1` [Compound 169], the EC50 rises from 1460 nM to 12600 nM (8.6-fold).

Going from `COC(=O)c1c(F)ccc(F)c1NC(=O)c1ccc(-n2ccnc2)nn1` [Compound 3] to `COC(=O)c1ccc(F)c(F)c1NC(=O)c1ccc(-n2ccnc2)nn1` [Compound 18], the EC50 falls from 10200 nM to 568 nM (18-fold).

`CCOC(=O)C1=C(NC(=O)c2ccc(-n3ccnc3)nn2)C[C@@H](C)O[C@H]1C` [Compound 135] and `CCOC(=O)C1=C(NC(=O)c2ccc(-n3ccnc3)nn2)COCC1` [Compound 129] are within 1.5-fold of each other in EC50: 12300 nM for the first, 10700 nM for the second.

Going from `Cc1ccc(C(=O)OC(C)C)c(NC(=O)c2ccc(-n3ccnc3)nn2)c1` [Compound 66] to `CC(C)OC(=O)c1cc(F)ccc1NC(=O)c1ccc(-n2ccnc2)nn1` [Compound 25], the EC50 rises from 518 nM to 805 nM (1.6-fold). The first is the more potent here.

Going from `O=C(Nc1ccccc1C(O)(C(F)(F)F)C(F)(F)F)c1ccc(-n2ccnc2)nn1` [Compound 1] to `Cc1ccc(NC(=O)c2ccc(-n3ccnc3)nn2)c(C(O)(C(F)(F)F)C(F)(F)F)c1` [Compound 115], the EC50 rises from 593 nM to 7360 nM (12-fold). The first is the more potent here.

`O=C(Nc1ccc(Cl)cc1C(=O)O)c1ccc(-n2ccnc2)nn1` [Compound 83] and `Cc1ccc(NC(=O)c2ccc(-n3ccnc3)nn2)c(C(=O)O)c1` [Compound 89] cannot be ordered by EC50: > 20000 nM for the first, > 20000 nM for the second.

First: COC(=O)c1ccc(C#N)cc1NC(=O)c1ccc(-n2ccnc2)nn1 [Compound 12]
Second: N#Cc1ccc(C(=O)O)c(NC(=O)c2ccc(-n3ccnc3)nn2)c1 [Compound 165]
The EC50 of the first is 26-fold lower: 159 nM for the first, 4090 nM for the second. The first is the more potent here.

Going from `CC(C)OC(=O)c1ccccc1NC(=O)c1ccc(-n2ccnc2)nn1` [Compound 95] to `COC(=O)c1ccccc1NC(=O)c1ccc(-n2ccnc2)nn1` [Compound 162], the EC50 falls from 1700 nM to 956 nM (1.8-fold). The second is the more potent here.

`O=C(Nc1cc(C(F)(F)F)ccc1C(=O)O)c1ccc(-n2ccnc2)nn1` [Compound 86] and `Cc1cc(C(=O)O)c(NC(=O)c2ccc(-n3ccnc3)nn2)cc1C(F)(F)F` [Compound 102] are within 1.5-fold of each other in EC50: 10300 nM for the first, 12100 nM for the second.

Compared with `COC(=O)c1cc2ccccc2cc1NC(=O)c1ccc(-n2ccnc2)nn1` [Compound 23], `COC(=O)c1cc2[nH]ncc2cc1NC(=O)c1ccc(-n2ccnc2)nn1` [Compound 117] is 46-fold higher in EC50: 56.1 nM for the first, ~2570 nM for the second. The first is the more potent here.

Going from `COC(=O)c1cc(C(C)C)ccc1NC(=O)c1ccc(-n2ccnc2)nn1` [Compound 160] to `COC(=O)c1ccc(Cl)cc1NC(=O)c1ccc(-n2ccnc2)nn1` [Compound 17], the EC50 falls from 3840 nM to 312 nM (12-fold).

Going from `COC(=O)c1c(F)cc(F)cc1NC(=O)c1ccc(-n2ccnc2)nn1` [Compound 51] to `COC(=O)c1cc(NC(=O)c2ccc(-n3ccnc3)nn2)cc(F)c1F` [Compound 10], the EC50 rises from 198 nM to 468 nM (2.4-fold).

`O=C(Nc1ccc(F)c(F)c1C(=O)O)c1ccc(-n2ccnc2)nn1` [Compound 173] and `O=C(Nc1cc(F)c(Br)nc1C(=O)O)c1ccc(-n2ccnc2)nn1` [Compound 177] cannot be ordered by EC50: > 20000 nM for the first, > 20000 nM for the second.

Compared with `COC(=O)c1ccncc1NC(=O)c1ccc(-n2ccnc2)nn1` [Compound 8], `COC(=O)c1cccc(F)c1NC(=O)c1ccc(-n2ccnc2)nn1` [Compound 156] is higher in EC50: 2570 nM for the first, > 50000 nM for the second. The first is the more potent here.

Going from `COC(=O)c1cc2cnn(C)c2cc1NC(=O)c1ccc(-n2ccnc2)nn1` [Compound 45] to `COC(=O)c1cc(Cl)c(Cl)cc1NC(=O)c1ccc(-n2ccnc2)nn1` [Compound 34], the EC50 falls from 126 nM to 72.6 nM (1.7-fold).

Compared with `COC(=O)c1cc(C(F)(F)F)c(F)cc1NC(=O)c1ccc(-n2ccnc2)nn1` [Compound 70], `COC(=O)c1cc(C(F)(F)F)cc(F)c1NC(=O)c1ccc(-n2ccnc2)nn1` [Compound 48] is 3.6-fold lower in EC50: 1720 nM for the first, 475 nM for the second. The second is the more potent here.

Compared with `O=C(Nc1cc(Cl)nnc1C(=O)O)c1ccc(-n2ccnc2)nn1` [Compound 157], `O=C(Nc1cc(F)c(OC(F)F)cc1C(=O)O)c1ccc(-n2ccnc2)nn1` [Compound 84] is lower in EC50: > 50000 nM for the first, 8590 nM for the second. The second is the more potent here.

First: COC(=O)c1ccc(F)c(C)c1NC(=O)c1ccc(-n2ccnc2)nn1 [Compound 2]
Second: COC(=O)c1cccc(Cl)c1NC(=O)c1ccc(-n2ccnc2)nn1 [Compound 96]
The EC50 of the first is 4.5-fold lower: 4690 nM for the first, 21100 nM for the second. The first is the more potent here.

Going from `CCOC(=O)C1=C(NC(=O)c2ccc(-n3ccnc3)nn2)CCCCC1` [Compound 120] to `O=C(O)C1=C(NC(=O)c2ccc(-n3ccnc3)nn2)CCCC1` [Compound 130], the EC50 falls from > 50000 nM to 14800 nM.

First: O=c1[nH]c(-c2ccc(-n3ccnc3)nn2)nc2cc(F)c(F)cc12 [Compound 126]
Second: Cc1c(F)ccc2nc(-c3ccc(-n4ccnc4)nn3)oc(=O)c12 [Compound 133]
The EC50 of the first is 3.7-fold lower: 1120 nM for the first, 4170 nM for the second. The first is the more potent here.

Going from `COC(=O)c1cc(F)c(OC)cc1NC(=O)c1ccc(-n2ccnc2)nn1` [Compound 52] to `COC(=O)c1cc(OC)c(Cl)cc1NC(=O)c1ccc(-n2ccnc2)nn1` [Compound 57], the EC50 falls from 74.4 nM to < 19.5 nM. The second is the more potent here.

Going from `COC(=O)c1cc(F)c(OC)c(F)c1NC(=O)c1ccc(-n2ccnc2)nn1` [Compound 59] to `COC(=O)c1c(F)c(F)c(F)c(F)c1NC(=O)c1ccc(-n2ccnc2)nn1` [Compound 176], the EC50 rises from 780 nM to ~2480 nM (3.2-fold).

Compared with `COC(=O)C1=C(NC(=O)c2ccc(-n3ccnc3)nn2)CC(C)(C)CC1` [Compound 127], `COC(=O)c1nc(OC)cnc1NC(=O)c1ccc(-n2ccnc2)nn1` [Compound 166] is 1.7-fold higher in EC50: 7300 nM for the first, 12100 nM for the second. The first is the more potent here.

Compared with `CC(C)OC(=O)c1cc(F)c(F)cc1NC(=O)c1ccc(-n2ccnc2)nn1` [Compound 24], `COC(=O)c1cc2c(cc1NC(=O)c1ccc(-n3ccnc3)nn1)OCO2` [Compound 98] is 3.6-fold higher in EC50: 736 nM for the first, 2680 nM for the second. The first is the more potent here.
